What all share (assay type): biochemical
Experiment [1] addresses adenosine A1 receptor (Homo sapiens (Human), UniProt P30542). In words: Adenosine receptor activity assay (Table 1), A1 cAMP. On the procedure: (§1) Table 1. Compounds (e.g., Adenosine Receptor modulators) and activity assay results. The legend is as follows: A=<10 nM; B=10-50 nM; C=50-100 nM; D=100-500; and E=>500 nM. The ratio corresponds to the A2A activity to the A2B activity; or A2A/A2B.

The target in experiment [2] is adenosine A2B receptor (Homo sapiens (Human), UniProt P29275). In words: Adenosine receptor activity assay (Table 1), A2B activity. Particulars: for Ratio: A2A activity to the A2B activity, A2A/A2B; for IC50: read-out: Ave A2B cAMP IC50.
Sequence of adenosine A2B receptor (P29275 whole entry): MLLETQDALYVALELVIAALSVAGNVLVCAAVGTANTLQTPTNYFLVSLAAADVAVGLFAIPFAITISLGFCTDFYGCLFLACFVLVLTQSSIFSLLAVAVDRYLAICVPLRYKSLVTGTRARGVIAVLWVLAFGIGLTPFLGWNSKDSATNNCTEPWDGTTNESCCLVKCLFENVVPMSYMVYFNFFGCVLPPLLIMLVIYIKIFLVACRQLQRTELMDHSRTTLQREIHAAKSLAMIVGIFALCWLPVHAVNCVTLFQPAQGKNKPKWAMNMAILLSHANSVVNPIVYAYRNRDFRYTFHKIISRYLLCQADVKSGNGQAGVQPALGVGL
The target in experiment [3] is adenosine A3 receptor (Homo sapiens (Human), UniProt P0DMS8). In words: Adenosine receptor activity assay (Table 1), A3 cAMP. On the procedure:
as §1

Experiment [4] has as its target adenosine A2A receptor (Homo sapiens (Human), UniProt P29274). In words: Adenosine receptor activity assay (Table 1), A2A activity. Particulars: read-out: Ave A2A cAMP IC50.

SMILES strings stand for the structures.

Sequence of adenosine A1 receptor (P30542 whole entry): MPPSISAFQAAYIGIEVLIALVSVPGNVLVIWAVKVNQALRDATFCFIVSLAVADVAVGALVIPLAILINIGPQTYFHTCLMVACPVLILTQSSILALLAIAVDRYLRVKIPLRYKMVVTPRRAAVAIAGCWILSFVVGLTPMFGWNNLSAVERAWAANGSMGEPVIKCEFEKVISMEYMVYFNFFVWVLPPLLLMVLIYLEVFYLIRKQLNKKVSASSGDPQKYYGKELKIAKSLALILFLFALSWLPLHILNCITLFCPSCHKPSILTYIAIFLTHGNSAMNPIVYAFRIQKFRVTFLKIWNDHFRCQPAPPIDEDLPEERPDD
Sequence of adenosine A3 receptor (P0DMS8 whole entry): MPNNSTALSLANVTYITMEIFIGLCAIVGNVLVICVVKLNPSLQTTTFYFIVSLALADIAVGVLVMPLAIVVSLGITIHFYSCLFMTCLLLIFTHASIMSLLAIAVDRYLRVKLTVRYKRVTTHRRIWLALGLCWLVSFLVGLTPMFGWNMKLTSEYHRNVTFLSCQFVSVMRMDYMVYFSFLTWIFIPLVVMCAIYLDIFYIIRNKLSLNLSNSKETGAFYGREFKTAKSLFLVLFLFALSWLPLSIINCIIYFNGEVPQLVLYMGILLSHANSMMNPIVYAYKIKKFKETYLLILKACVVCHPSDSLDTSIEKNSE
Sequence of adenosine A2A receptor (P29274 whole entry): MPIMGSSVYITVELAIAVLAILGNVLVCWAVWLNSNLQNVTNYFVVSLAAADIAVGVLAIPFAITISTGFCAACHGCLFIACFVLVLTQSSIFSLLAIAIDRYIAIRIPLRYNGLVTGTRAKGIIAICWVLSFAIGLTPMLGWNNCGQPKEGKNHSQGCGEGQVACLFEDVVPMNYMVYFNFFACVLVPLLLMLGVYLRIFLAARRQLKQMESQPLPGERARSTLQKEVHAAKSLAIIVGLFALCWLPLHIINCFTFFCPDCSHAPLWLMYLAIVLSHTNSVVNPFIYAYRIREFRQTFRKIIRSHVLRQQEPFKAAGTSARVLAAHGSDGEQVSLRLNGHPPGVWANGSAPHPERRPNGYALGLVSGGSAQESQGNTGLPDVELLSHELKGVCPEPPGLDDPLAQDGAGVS

Consider `Cc1cc2nc(N[C@@H](C)c3cncc(F)c3)nc(C(=O)N3CC[C@H](CN)C3)c2s1` [Example Z554, ((R)-3-(Aminomethyl)pyrrolidin-1-yl)(2-(((S)-1-(5-fluoropyridin-3-yl)ethyl)amino)-6-methylthieno[3,2-d]pyrimidin-4-yl)methanone], for which the IC50 is greater than 500 nM in experiment [1], less than 10 nM in experiment [2], greater than 500 nM in experiment [3] and greater than 500 nM in experiment [4]. Also, in experiment [2], the Ratio is reported as 547.59.
As for `C[C@H](Nc1nc(C(=O)N2CC(NC(=O)CC(C)(C)C)C2)c2sccc2n1)c1cncc(F)c1` [Example Z557, (S)—N-(1-(2-((1-(5-Fluoropyridin-3-yl)ethyl)amino)thieno[3,2-d]pyrimidine-4-carbonyl)azetidin-3-yl)-3,3-dimethylbutanamide], the half-inhibitory concentration (IC50) was greater than 500 nM in experiment [1], 10 to 50 nM in experiment [2], greater than 500 nM in experiment [3] and 10 to 50 nM in experiment [4]. For the same compound, the Ratio in experiment [2] is 1.92.
As to `CC(C)C(=O)NC1CN(C(=O)c2nc(N[C@@H](C)c3cncc(F)c3)nc3ccsc23)C1` [Example Z558, (S)—N-(1-(2-((1-(5-Fluoropyridin-3-yl)ethyl)amino)thieno[3,2-d]pyrimidine-4-carbonyl)azetidin-3-yl)isobutyramide], the half-inhibitory concentration (IC50) in experiment [1] is greater than 500 nM; in experiment [2], less than 10 nM; in experiment [3] it was greater than 500 nM; in experiment [4] it was 10 to 50 nM. The Ratio in experiment [2] stood at 3.43.
Regarding `Cc1csc2c(C(=O)N3CC(NC(=O)C(C)(C)C)C3)nc(N[C@@H](C)c3ccccn3)nc12` [Example Z559, (S)—N-(1-(7-Methyl-2-((1-(pyridin-2-yl)ethyl)amino)thieno[3,2-d]pyrimidine-4-carbonyl)azetidin-3-yl)pivalamide], the half-maximal inhibitory concentration (IC50) in experiment [1] was greater than 500 nM; in experiment [2], 10 to 50 nM; in experiment [3], 100 to 500 nM; in experiment [4], 10 to 50 nM. Further, the Ratio in experiment [2] was found to be 1.93.
Regarding `CN[C@@H]1CCN(C(=O)c2nc(N[C@@H](C)c3cncc(F)c3)nc3cc(C)sc23)C1` [Example Z560, (2-(((S)-1-(5-Fluoropyridin-3-yl)ethyl)amino)-6-methylthieno[3,2-d]pyrimidin-4-yl)((R)-3-(methylamino)pyrrolidin-1-yl)methanone], the 50% inhibitory concentration (IC50) in experiment [1] is greater than 500 nM; in experiment [2] it was 50 to 100 nM; in experiment [3], greater than 500 nM; in experiment [4] it was greater than 500 nM. The Ratio in experiment [2] is 59.47.
On to `CN[C@H]1CCN(C(=O)c2nc(N[C@@H](C)c3cncc(F)c3)nc3cc(C)sc23)C1` [Example Z561, (2-(((S)-1-(5-Fluoropyridin-3-yl)ethyl)amino)-6-methylthieno[3,2-d]pyrimidin-4-yl)((S)-3-(methylamino)pyrrolidin-1-yl)methanone], for which the concentration for half-maximal inhibition (IC50) in experiment [1] was greater than 500 nM; in experiment [2], 50 to 100 nM; in experiment [3], greater than 500 nM; in experiment [4], greater than 500 nM. For the same compound, the Ratio in experiment [2] stood at 140.19.
As for `Cc1cc2nc(N[C@@H](C)c3cncc(F)c3)nc(C(=O)NCCC3CCN(C)CC3)c2s1` [Example Z562, (S)-2-((1-(5-Fluoropyridin-3-yl)ethyl)amino)-6-methyl-N-(2-(1-methylpiperidin-4-yl)ethyl)thieno[3,2-d]pyrimidine-4-carboxamide], the IC50 in experiment [1] was greater than 500 nM; in experiment [2] it was 10 to 50 nM; in experiment [3], greater than 500 nM; in experiment [4] it was greater than 500 nM. Moreover, the Ratio in experiment [2] came to 127.97.
In the case of `C[C@H](Nc1nc(C(=O)N2CC(CC(=O)NC(C)(C)C)C2)c2sccc2n1)c1cncc(F)c1` [Example Z571, (S)—N-(tert-Butyl)-2-(1-(2-((1-(5-fluoropyridin-3-yl)ethyl)amino)thieno[3,2-d]pyrimidine-4-carbonyl)azetidin-3-yl)acetamide], the half-inhibitory concentration (IC50) in experiment [1] was greater than 500 nM; in experiment [2], 10 to 50 nM; in experiment [3], greater than 500 nM; in experiment [4], 10 to 50 nM. The Ratio in experiment [2] was found to be 1.51.
`Cc1cc2nc(N[C@@H](C)c3cncc(F)c3)nc(C(=O)N3CC(C(=O)OC(C)(C)C)C3)c2s1` [Example Z573, tert-Butyl (S)-1-(2-((1-(5-fluoropyridin-3-yl)ethyl)amino)-6-methylthieno[3,2-d]pyrimidine-4-carbonyl)azetidine-3-carboxylate]: the 50% inhibitory concentration (IC50) is greater than 500 nM in experiment [1], 10 to 50 nM in experiment [2], greater than 500 nM in experiment [3] and 100 to 500 nM in experiment [4]. For the same compound, the Ratio in experiment [2] is 3.44.
For the compound `Cc1cc2nc(N[C@@H](C)c3cncc(F)c3)nc(C(=O)N3CC(CS(C)(=O)=O)C3)c2s1` [Example Z575, (S)-(2-((1-(5-Fluoropyridin-3-yl)ethyl)amino)-6-methylthieno[3,2-d]pyrimidin-4-yl)(3-((methylsulfonyl)methyl)azetidin-1-yl)methanone], the IC50 in experiment [1] is greater than 500 nM; in experiment [2], less than 10 nM; in experiment [3], greater than 500 nM; in experiment [4], greater than 500 nM. For the same compound, in experiment [2], the Ratio is on record as 75.64.
As for `CNC(=O)NCC1CN(C(=O)c2nc(N[C@@H](C)c3cncc(F)c3)nc3ccsc23)C1` [Example Z576, (S)-1-((1-(2-((1-(5-Fluoropyridin-3-yl)ethyl)amino)thieno[3,2-d]pyrimidine-4-carbonyl)azetidin-3-yl)methyl)-3-methylurea], the IC50 in experiment [1] is greater than 500 nM; in experiment [2] it was less than 10 nM; in experiment [3], greater than 500 nM; in experiment [4], 100 to 500 nM. In addition, the Ratio in experiment [2] is recorded as 26.03.
For `C[C@H](Nc1nc(C(=O)N2CC(CNC(=O)N(C)C)C2)c2sccc2n1)c1cncc(F)c1` [Example Z577, (S)-3-((1-(2-((1-(5-Fluoropyridin-3-yl)ethyl)amino)thieno[3,2-d]pyrimidine-4-carbonyl)azetidin-3-yl)methyl)-1,1-dimethylurea], the IC50 is greater than 500 nM in experiment [1], 10 to 50 nM in experiment [2], greater than 500 nM in experiment [3] and 50 to 100 nM in experiment [4]. Also, the Ratio in experiment [2] was 6.37.
With `CC(C)C(=O)NCC1CN(C(=O)c2nc(N[C@@H](C)c3cncc(F)c3)nc3ccsc23)C1` [Example Z578, (S)—N-((1-(2-((1-(5-Fluoropyridin-3-yl)ethyl)amino)thieno[3,2-d]pyrimidine-4-carbonyl)azetidin-3-yl)methyl)isobutyramide], the IC50 was greater than 500 nM in experiment [1], 10 to 50 nM in experiment [2], greater than 500 nM in experiment [3] and 50 to 100 nM in experiment [4]. In experiment [2], the Ratio came out at 4.95.
For `C[C@H](Nc1nc(C(=O)N2CC(C(=O)NOC(C)(C)C)C2)c2sccc2n1)c1cncc(F)c1` [Example Z579, (S)—N-(tert-Butoxy)-1-(2-((1-(5-fluoropyridin-3-yl)ethyl)amino)thieno[3,2-d]pyrimidine-4-carbonyl)azetidine-3-carboxamide], the half-maximal inhibitory concentration (IC50) was greater than 500 nM in experiment [1], 50 to 100 nM in experiment [2], greater than 500 nM in experiment [3] and 50 to 100 nM in experiment [4]. Moreover, in experiment [2], the Ratio turned out to be 1.29.
As to `Cc1cc2nc(N[C@@H](C)c3cncc(F)c3)nc(C(=O)N3CC(CC(=O)OC(C)(C)C)C3)c2s1` [Example Z580, tert-Butyl (S)-2-(1-(2-((1-(5-Fluoropyridin-3-yl)ethyl)amino)-6-methylthieno[3,2-d]pyrimidine-4-carbonyl)azetidin-3-yl)acetate], the IC50 in experiment [1] was greater than 500 nM; in experiment [2], 10 to 50 nM; in experiment [3], 100 to 500 nM; in experiment [4] it was 10 to 50 nM. Besides, the Ratio in experiment [2] was 1.19.
Turning to `C[C@H](Nc1nc(C(=O)N2CC(CNC(=O)OCC(C)(C)C)C2)c2sccc2n1)c1cncc(F)c1` [Example Z581, Neopentyl (S)-((1-(2-((1-(5-fluoropyridin-3-yl)ethyl)amino)thieno[3,2-d]pyrimidine-4-carbonyl)azetidin-3-yl)methyl)carbamate], the IC50 is greater than 500 nM in experiment [1], 10 to 50 nM in experiment [2], greater than 500 nM in experiment [3] and 10 to 50 nM in experiment [4]. Moreover, in experiment [2], the Ratio is 1.68.
In the case of `C[C@H](Nc1nc(C(=O)N2CC(NC(=O)OC(C)(C)C)C2)c2sccc2n1)c1cncc(F)c1` [Example Z583, tert-Butyl (S)-(1-(2-((1-(5-fluoropyridin-3-yl)ethyl)amino)thieno[3,2-d]pyrimidine-4-carbonyl)azetidin-3-yl)carbamate], the half-maximal inhibitory concentration (IC50) in experiment [1] was greater than 500 nM; in experiment [2], 10 to 50 nM; in experiment [3], greater than 500 nM; in experiment [4] it was 10 to 50 nM. In experiment [2], the Ratio stood at 0.37.
Regarding `CNC(=O)N1CCN(C(=O)c2nc(N[C@@H](C)c3cncc(F)c3)nc3ccsc23)C1` [Example Z585, (S)-3-(2-((1-(5-Fluoropyridin-3-yl)ethyl)amino)thieno[3,2-d]pyrimidine-4-carbonyl)-N-methylimidazolidine-1-carboxamide], the IC50 in experiment [1] was greater than 500 nM; in experiment [2] it was 10 to 50 nM; in experiment [3], greater than 500 nM; in experiment [4] it was 100 to 500 nM. For the same compound, the Ratio in experiment [2] came to 21.44.
As for `Cc1cc2nc(N[C@@H](C)c3cncc(F)c3)nc(C(=O)N3CC(CNC(=O)CC(C)(C)C)C3)c2s1` [Example Z586, (S)—N-((1-(2-((1-(5-Fluoropyridin-3-yl)ethyl)amino)-6-methylthieno[3,2-d]pyrimidine-4-carbonyl)azetidin-3-yl)methyl)-3,3-dimethylbutanamide], the concentration for half-maximal inhibition (IC50) is greater than 500 nM in experiment [1], 10 to 50 nM in experiment [2], greater than 500 nM in experiment [3] and 50 to 100 nM in experiment [4]. Besides, the Ratio in experiment [2] is listed as 2.27.

The record behind these values is US11254686B1 (Corvus Pharmaceuticals, Inc., priority 2017, dated 2022).
